Where a SMILES comes first, the peptide text is derived from it. Bridges are numbered along the chain shown (N, C = ends). [ ]: non-standard residue; d: D form. NMeY = CN[C@@H](Cc1ccc(O)cc1)C(=O)O; R8 = C=CCCCCCC[C@@](C)(N)C(=O)O; S5 = C=CCCC[C@](C)(N)C(=O)O; Nle = CCCC[C@H](N)C(=O)O
target: T1, human GHRH receptor (hGHRHR) (Homo sapiens, UniProt Q02643); experiment: GHRHR agonism measured by cAMP (HTRF) in human 293 cells expressing hGHRHR; format: cell-based; settings: 30 min at RT;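 further: receptor expressed transiently or stably, cells stimulated in serum-free medium, EC50 from a non-linear dose-response fit, maximal response defined by reference GHRH stimulation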
T1 construct: expressed in transfected cells; host or cells: Human 293 cells
T1 sequence (Q02643 23-423): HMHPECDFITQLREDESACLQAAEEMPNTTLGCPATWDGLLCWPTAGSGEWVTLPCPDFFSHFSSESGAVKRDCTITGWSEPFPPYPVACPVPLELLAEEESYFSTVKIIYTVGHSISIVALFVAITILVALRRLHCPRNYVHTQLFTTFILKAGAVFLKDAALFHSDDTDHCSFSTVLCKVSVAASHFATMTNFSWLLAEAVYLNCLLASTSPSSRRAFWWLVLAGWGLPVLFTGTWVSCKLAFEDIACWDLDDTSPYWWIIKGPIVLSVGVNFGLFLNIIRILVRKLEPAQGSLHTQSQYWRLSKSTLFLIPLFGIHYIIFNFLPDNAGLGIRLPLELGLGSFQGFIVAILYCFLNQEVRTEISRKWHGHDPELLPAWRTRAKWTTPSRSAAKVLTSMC

| EC50 [nM] | SMILES |
| --- | --- |
| 10 to 25 | CCCC[C@H](NC(=O)[C@@H](NC(=O)[C@]1(C)CCCC=CCCC[C@](C)(NC(=O)[C@H](CCCNC(=N)N)NC(=O)[C@H](C)NC(=O)[C@H](CO)NC(=O)[C@H](CC(C)C)NC(=O)[C@H](CCC(N)=O)NC(=O)[C@H](C)NC(=O)[C@H](CC(C)C)NC(=O)[C@@H](NC(=O)[C@H](CCCCN)NC(=O)[C@H](CCCNC(=N)N)NC(=O)[C@H](Cc2ccc(O)cc2)NC(=O)[C@H](CO)NC(=O)[C@H](C)NC(=O)[C@@H](NC(=O)[C@H](Cc2ccccc2)NC(=O)[C@@H](NC(=O)[C@H](C)NC(=O)[C@H](CC(=O)O)NC(=O)[C@H](C)NC(=O)[C@H](Cc2ccc(O)cc2)NC)[C@@H](C)CC)[C@@H](C)O)C(C)C)C(=O)N[C@@H](C)C(=O)N[C@@H](CC(C)C)C(=O)N[C@@H](CCC(N)=O)C(=O)N1)[C@@H](C)CC)C(=O)N[C@@H](CO)C(=O)N[C@@H](CCCNC(=N)N)C(N)=O [SP-18] (H-[NMeY]ADAIFTASYRKVLAQLSAR[S5]ALQ[S5]I[Nle]SR-NH2; staple 21-25) |
| 1 to 10 | CCCC[C@H](NC(=O)[C@@H](NC(=O)[C@H](CC(=O)O)NC(=O)[C@H](CCC(N)=O)NC(=O)[C@]1(C)CCCC=CCCCCCC[C@@](C)(NC(=O)[C@H](C)NC(=O)[C@H](CC(C)C)NC(=O)[C@@H](NC(=O)[C@H](CCCCN)NC(=O)[C@H](CCCNC(=N)N)NC(=O)[C@H](Cc2ccc(O)cc2)NC(=O)[C@H](CO)NC(=O)[C@H](C)NC(=O)[C@@H](NC(=O)[C@H](Cc2ccccc2)NC(=O)[C@@H](NC(=O)[C@H](C)NC(=O)[C@H](CC(=O)O)NC(=O)[C@H](C)NC(=O)[C@H](Cc2ccc(O)cc2)NC)[C@@H](C)CC)[C@@H](C)O)C(C)C)C(=O)N[C@@H](CC(C)C)C(=O)N[C@@H](CO)C(=O)N[C@@H](C)C(=O)N[C@@H](CCCNC(=N)N)C(=O)N[C@@H](CCCCN)C(=O)N[C@@H](C)C(=O)N1)[C@@H](C)CC)C(=O)N[C@@H](CO)C(=O)N[C@@H](CCCNC(=N)N)C(N)=O [SP-28] (H-[NMeY]ADAIFTASYRKVLA[R8]LSARKA[S5]QDI[Nle]SR-NH2; staple 16-23) |
| 1 to 10 | CCCC[C@H](NC(=O)[C@@H](NC(=O)[C@]1(C)CCCC=CCCCCCC[C@@](C)(NC(=O)[C@H](CC(C)C)NC(=O)[C@H](CCC(N)=O)NC(=O)[C@H](C)NC(=O)[C@H](CC(C)C)NC(=O)[C@@H](NC(=O)[C@H](CCCCN)NC(=O)[C@H](CCCNC(=N)N)NC(=O)[C@H](Cc2ccc(O)cc2)NC(=O)[C@H](CO)NC(=O)[C@H](C)NC(=O)[C@@H](NC(=O)[C@H](Cc2ccccc2)NC(=O)[C@@H](NC(=O)[C@H](C)NC(=O)[C@H](CC(=O)O)NC(=O)[C@H](C)NC(=O)[C@H](Cc2ccc(O)cc2)NC)[C@@H](C)CC)[C@@H](C)O)C(C)C)C(=O)N[C@@H](C)C(=O)N[C@@H](CCCNC(=N)N)C(=O)N[C@@H](CCCCN)C(=O)N[C@@H](C)C(=O)N[C@@H](CC(C)C)C(=O)N[C@@H](CCC(N)=O)C(=O)N1)[C@@H](C)CC)C(=O)N[C@@H](CO)C(=O)N[C@@H](CCCNC(=N)N)C(N)=O [SP-30] (H-[NMeY]ADAIFTASYRKVLAQL[R8]ARKALQ[S5]I[Nle]SR-NH2; staple 18-25) |

Second part, the molecule before the results:

| SMILES | EC50 [nM] |
| --- | --- |
| CCCC[C@H](NC(=O)[C@@H](NC(=O)[C@H](CC(=O)O)NC(=O)[C@H](CCC(N)=O)NC(=O)[C@H](CC(C)C)NC(=O)[C@H](C)NC(=O)[C@H](CCCCN)NC(=O)[C@H](CCCNC(=N)N)NC(=O)[C@H](C)NC(=O)[C@H](CO)NC(=O)[C@H](CC(C)C)NC(=O)[C@H](CCC(N)=O)NC(=O)[C@H](C)NC(=O)[C@H](CC(C)C)NC(=O)[C@@H](NC(=O)[C@]1(C)CCCC=CCCCCCC[C@@](C)(NC(=O)[C@H](C)NC(=O)[C@H](CC(=O)O)NC(=O)[C@H](C)NC(=O)[C@H](Cc2ccc(O)cc2)NC)C(=O)N[C@@H](Cc2ccccc2)C(=O)N[C@@H]([C@@H](C)O)C(=O)N[C@@H](C)C(=O)N[C@@H](CO)C(=O)N[C@@H](Cc2ccc(O)cc2)C(=O)N[C@@H](CCCNC(=N)N)C(=O)N1)C(C)C)[C@@H](C)CC)C(=O)N[C@@H](CO)C(=O)N[C@@H](CCCNC(=N)N)C(N)=O [SP-24] (H-[NMeY]ADA[R8]FTASYR[S5]VLAQLSARKALQDI[Nle]SR-NH2; staple 5-12) | 1 to 10 |
| CCCC[C@H](NC(=O)[C@@H](NC(=O)[C@H](CC(=O)O)NC(=O)[C@H](CCC(N)=O)NC(=O)[C@H](CC(C)C)NC(=O)[C@H](C)NC(=O)[C@H](CCCCN)NC(=O)[C@H](CCCNC(=N)N)NC(=O)[C@H](C)NC(=O)[C@H](CO)NC(=O)[C@H](CC(C)C)NC(=O)[C@H](CCC(N)=O)NC(=O)[C@]1(C)CCCC=CCCCCCC[C@@](C)(NC(=O)[C@@H](NC(=O)[C@H](Cc2ccccc2)NC(=O)[C@@H](NC(=O)[C@H](C)NC(=O)[C@H](CC(=O)O)NC(=O)[C@H](C)NC(=O)[C@H](Cc2ccc(O)cc2)NC)[C@@H](C)CC)[C@@H](C)O)C(=O)N[C@@H](CO)C(=O)N[C@@H](Cc2ccc(O)cc2)C(=O)N[C@@H](CCCNC(=N)N)C(=O)N[C@@H](CCCCN)C(=O)N[C@@H](C(C)C)C(=O)N[C@@H](CC(C)C)C(=O)N1)[C@@H](C)CC)C(=O)N[C@@H](CO)C(=O)N[C@@H](CCCNC(=N)N)C(N)=O [SP-25] (H-[NMeY]ADAIFT[R8]SYRKVL[S5]QLSARKALQDI[Nle]SR-NH2; staple 8-15) | 1 to 10 |
| CCCC[C@H](NC(=O)[C@@H](NC(=O)[C@H](CC(=O)O)NC(=O)[C@H](CCC(N)=O)NC(=O)[C@H](CC(C)C)NC(=O)[C@H](C)NC(=O)[C@]1(C)CCCC=CCCCCCC[C@@](C)(NC(=O)[C@@H](NC(=O)[C@H](CCCCN)NC(=O)[C@H](CCCNC(=N)N)NC(=O)[C@H](Cc2ccc(O)cc2)NC(=O)[C@H](CO)NC(=O)[C@H](C)NC(=O)[C@@H](NC(=O)[C@H](Cc2ccccc2)NC(=O)[C@@H](NC(=O)[C@H](C)NC(=O)[C@H](CC(=O)O)NC(=O)[C@H](C)NC(=O)[C@H](Cc2ccc(O)cc2)NC)[C@@H](C)CC)[C@@H](C)O)C(C)C)C(=O)N[C@@H](C)C(=O)N[C@@H](CCC(N)=O)C(=O)N[C@@H](CC(C)C)C(=O)N[C@@H](CO)C(=O)N[C@@H](C)C(=O)N[C@@H](CCCNC(=N)N)C(=O)N1)[C@@H](C)CC)C(=O)N[C@@H](CO)C(=O)N[C@@H](CCCNC(=N)N)C(N)=O [SP-26] (H-[NMeY]ADAIFTASYRKV[R8]AQLSAR[S5]ALQDI[Nle]SR-NH2; staple 14-21) | 10 to 25 |
| CCCC[C@H](NC(=O)[C@@H](NC(=O)[C@H](CC(=O)O)NC(=O)[C@H](CCC(N)=O)NC(=O)[C@H](CC(C)C)NC(=O)[C@]1(C)CCCC=CCCCCCC[C@@](C)(NC(=O)[C@H](CC(C)C)NC(=O)[C@@H](NC(=O)[C@H](CCCCN)NC(=O)[C@H](CCCNC(=N)N)NC(=O)[C@H](Cc2ccc(O)cc2)NC(=O)[C@H](CO)NC(=O)[C@H](C)NC(=O)[C@@H](NC(=O)[C@H](Cc2ccccc2)NC(=O)[C@@H](NC(=O)[C@H](C)NC(=O)[C@H](CC(=O)O)NC(=O)[C@H](C)NC(=O)[C@H](Cc2ccc(O)cc2)NC)[C@@H](C)CC)[C@@H](C)O)C(C)C)C(=O)N[C@@H](CCC(N)=O)C(=O)N[C@@H](CC(C)C)C(=O)N[C@@H](CO)C(=O)N[C@@H](C)C(=O)N[C@@H](CCCNC(=N)N)C(=O)N[C@@H](CCCCN)C(=O)N1)[C@@H](C)CC)C(=O)N[C@@H](CO)C(=O)N[C@@H](CCCNC(=N)N)C(N)=O [SP-27] (H-[NMeY]ADAIFTASYRKVL[R8]QLSARK[S5]LQDI[Nle]SR-NH2; staple 15-22) | 1 to 10 |
| CCCC[C@H](NC(=O)[C@@H](NC(=O)[C@H](CC(=O)O)NC(=O)[C@]1(C)CCCC=CCCCCCC[C@@](C)(NC(=O)[C@H](CCC(N)=O)NC(=O)[C@H](C)NC(=O)[C@H](CC(C)C)NC(=O)[C@@H](NC(=O)[C@H](CCCCN)NC(=O)[C@H](CCCNC(=N)N)NC(=O)[C@H](Cc2ccc(O)cc2)NC(=O)[C@H](CO)NC(=O)[C@H](C)NC(=O)[C@@H](NC(=O)[C@H](Cc2ccccc2)NC(=O)[C@@H](NC(=O)[C@H](C)NC(=O)[C@H](CC(=O)O)NC(=O)[C@H](C)NC(=O)[C@H](Cc2ccc(O)cc2)NC)[C@@H](C)CC)[C@@H](C)O)C(C)C)C(=O)N[C@@H](CO)C(=O)N[C@@H](C)C(=O)N[C@@H](CCCNC(=N)N)C(=O)N[C@@H](CCCCN)C(=O)N[C@@H](C)C(=O)N[C@@H](CC(C)C)C(=O)N1)[C@@H](C)CC)C(=O)N[C@@H](CO)C(=O)N[C@@H](CCCNC(=N)N)C(N)=O [SP-29] (H-[NMeY]ADAIFTASYRKVLAQ[R8]SARKAL[S5]DI[Nle]SR-NH2; staple 17-24) | 1 to 10 |
| CCCC[C@H](NC(=O)[C@]1(C)CCCC=CCCCCCC[C@@](C)(NC(=O)[C@H](CO)NC(=O)[C@H](CC(C)C)NC(=O)[C@H](CCC(N)=O)NC(=O)[C@H](C)NC(=O)[C@H](CC(C)C)NC(=O)[C@@H](NC(=O)[C@H](CCCCN)NC(=O)[C@H](CCCNC(=N)N)NC(=O)[C@H](Cc2ccc(O)cc2)NC(=O)[C@H](CO)NC(=O)[C@H](C)NC(=O)[C@@H](NC(=O)[C@H](Cc2ccccc2)NC(=O)[C@@H](NC(=O)[C@H](C)NC(=O)[C@H](CC(=O)O)NC(=O)[C@H](C)NC(=O)[C@H](Cc2ccc(O)cc2)NC)[C@@H](C)CC)[C@@H](C)O)C(C)C)C(=O)N[C@@H](CCCNC(=N)N)C(=O)N[C@@H](CCCCN)C(=O)N[C@@H](C)C(=O)N[C@@H](CC(C)C)C(=O)N[C@@H](CCC(N)=O)C(=O)N[C@@H](CC(=O)O)C(=O)N1)C(=O)N[C@@H](CO)C(=O)N[C@@H](CCCNC(=N)N)C(N)=O [SP-31] (H-[NMeY]ADAIFTASYRKVLAQLS[R8]RKALQD[S5][Nle]SR-NH2; staple 19-26) | 1 to 10 |
